Experimental data as given in paper PMC6309308 (Cell chemical biology, 2018).
Several values for one entry are separate records, joined by “and”; a condition that tells them apart may be missing. Equal values may be shown once.

Key:
AMSH = target: T1, AMSH (Homo sapiens, UniProt O95630); assay: AMSH inhibition assay; format: biochemical; conditions: read-out: IC50 AMSH
T1 sequence (O95630 1-424): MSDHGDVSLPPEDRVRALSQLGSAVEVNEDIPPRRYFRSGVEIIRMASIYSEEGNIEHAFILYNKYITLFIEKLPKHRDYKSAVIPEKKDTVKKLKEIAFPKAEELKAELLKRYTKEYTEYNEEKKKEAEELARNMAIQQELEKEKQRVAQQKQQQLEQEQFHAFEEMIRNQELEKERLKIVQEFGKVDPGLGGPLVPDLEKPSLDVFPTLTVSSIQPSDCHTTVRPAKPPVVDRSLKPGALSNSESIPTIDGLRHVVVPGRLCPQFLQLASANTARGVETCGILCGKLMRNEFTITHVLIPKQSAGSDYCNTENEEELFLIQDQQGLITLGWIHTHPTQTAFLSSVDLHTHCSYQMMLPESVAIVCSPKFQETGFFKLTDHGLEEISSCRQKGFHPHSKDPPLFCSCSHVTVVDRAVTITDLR

[1] = tested on: c-Myc mRNA in HCT116 cells; assay: c-Myc mRNA expression by qRT-PCR; format: cell-based, human; conditions: 10 μM, 4 hours, normalized to GAPDH
Rpn11 = Rpn11 (Homo sapiens, UniProt O00487); assay: Rpn11 activity assay with Ub4-peptide substrate; format: biochemical; conditions: read-out: IC50 Rpn11
[2] = target: Human carbonic anhydrase II (hCAII) (Homo sapiens, UniProt P00918); assay: hCAII assay; format: biochemical; conditions: read-out: IC50 hCAII; 10 nM hCAII, pH 8.0
MMP-2 = target: T2, MMP-2 (Homo sapiens, UniProt P08253); assay: MMP-2 assay; format: biochemical; conditions: read-out: IC50 MMP-2
T2 sequence (P08253 110-660): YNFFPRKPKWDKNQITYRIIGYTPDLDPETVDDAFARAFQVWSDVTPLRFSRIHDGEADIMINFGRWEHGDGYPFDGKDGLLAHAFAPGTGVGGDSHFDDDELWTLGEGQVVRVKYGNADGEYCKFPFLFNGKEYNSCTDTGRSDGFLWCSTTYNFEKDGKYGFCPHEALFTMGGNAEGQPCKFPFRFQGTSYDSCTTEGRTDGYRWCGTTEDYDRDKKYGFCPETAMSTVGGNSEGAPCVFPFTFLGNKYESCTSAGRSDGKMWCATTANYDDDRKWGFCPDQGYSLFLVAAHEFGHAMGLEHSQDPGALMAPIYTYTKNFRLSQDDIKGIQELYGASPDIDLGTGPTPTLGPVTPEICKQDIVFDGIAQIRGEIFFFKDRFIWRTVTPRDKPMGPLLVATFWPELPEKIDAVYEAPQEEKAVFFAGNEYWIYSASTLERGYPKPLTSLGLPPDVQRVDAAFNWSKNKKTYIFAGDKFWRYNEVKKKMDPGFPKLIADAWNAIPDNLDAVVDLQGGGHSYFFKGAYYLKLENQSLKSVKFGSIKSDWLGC

WT RPE1 cells = assay: RPE1 WT cell proliferation; format: cell-based; conditions: WT RPE cells, 72 hours
[3] = tested on: HCT116 human colon cancer cells; assay: HCT116 cell proliferation; format: cell-based
NFE2L1 in HCT116 cells = assay: Immunoblot of NFE2L1 accumulation; conditions: HCT116, 6 hours
[4] = tested on: bortezomib-resistant (BTZR) RPE1 cells; assay: Bortezomib-resistant RPE1 cell proliferation; format: cell-based; conditions: BTZR RPE cells, 72 hours
HCT116 cells = assay: Cell detachment; conditions: ETPs 10 μM, 3 hours
Csn5 = Csn5 (Homo sapiens, UniProt Q92905); assay: Csn5 inhibition assay; format: biochemical; conditions: read-out: IC50 Csn5
[5] = tested on: unfolded protein response in HCT116 cells; assay: Unfolded protein response immunoblot; format: cell-based, human; conditions: HCT116, 6 hours
[6] = target: purified human 26S proteasome (Homo sapiens, UniProt O00487+P28074); assay: SDS-PAGE analysis of proteasome activity; format: biochemical; conditions: 37 °C, 2 hours; 20 μM capzimin, 10 μM carfilzomib
26S proteasome = 26S proteasome (Homo sapiens, UniProt O00487); assay: Fluorescence polarization protein degradation assay with purified 26S proteasome; conditions: 37 °C, SOP6, gliotoxin 10 µM each
IκB = assay: IκBα degradation assay after TNF-α stimulation; format: cell-based, human; conditions: Hela cells, 10 minutes pre-treatment, TNF-α 30 minutes
[7] = tested on: ubiquitin conjugates in HCT116 cells; assay: Immunoblot of poly-ubiquitinated species; conditions: HCT116, 10 μM, 3 hours
Cul1 in HCT116 cells = assay: Immunoblot of Nedd8-conjugated Cul1; conditions: HCT116, 6 hours
[8] = target: chymotrypsin-like activity of the 20S proteasome (Homo sapiens, UniProt P28074); assay: Suc-LLVY-amc fluorescence assay of chymotrypsin-like activity; conditions: 20 µM compound, 20 μM Suc-LLVY-amc, 15 nM 26S proteasome

## O=C1[C@H]2N(Cc3ccccc3)C(=O)[C@@](Cc3ccccc3)(N1Cc1ccccc1)S2=S (mixture of isomers) [SOP11, (±)-(1S,4S)-1,2,5-tribenzyl-7-thia-2,5-diazabicyclo[2.2.1]heptane-3,6-dione 7-sulfide]
AMSH
  IC50: 0.9 ± 0.1 µM
[1]
  level of c-Myc mRNA: decreased
Rpn11
  IC50: 1.3 ± 0.3 µM
[2]
  IC50: > 100 µM
MMP-2
  IC50: > 100 µM
WT RPE1 cells
  GI50: ~8 µM
[3]
  GI50: ~4.7 µM and 4.7 µM
NFE2L1 in HCT116 cells
  accumulation of processed NFE2L1: induced accumulation of processed NFE2L1
[4]
  GI50: ~8 µM
HCT116 cells
  cell detachment: did not detach cells
Csn5
  IC50: 0.6 ± 0.2 µM
[5]
  unfolded protein response (UPR): provoked a pronounced UPR

## Nc1ncnc2c1ncn2[C@@H]1O[C@H](COP(=O)(O)OP(=O)(O)NP(=O)(O)O)[C@@H](O)[C@H]1O [AMP-PNP]
[6]
  degradation of UbnGST-Wbp2 by 26S proteasome (SDS-PAGE): blocked

## Nc1ncnc2c1ncn2[C@@H]1O[C@H](CO[P@](=O)(O)O[P@](=O)(O)O[P@@](=O)(O)S)[C@@H](O)[C@H]1O [ATPγS]
26S proteasome
  effect on decline in fluorescence polarization (K48UbnGST-Wbp2 degradation): inhibited

## CC(C)C[C@H](NC(=O)[C@H](Cc1ccccc1)NC(=O)c1cnccn1)B(O)O [bortezomib]
HCT116 cells
  cell detachment: not observed

## O=C(NCCc1nccs1)c1cnc2c(SSc3cccc4cc(C(=O)NCCc5nccs5)cnc34)cccc2c1 [capzimin]
[6]
  degradation of UbnGST-Wbp2 by 26S proteasome (SDS-PAGE): blocked
HCT116 cells
  cell detachment: not observed

## CC(C)C[C@H](NC(=O)[C@H](CCc1ccccc1)NC(=O)CN1CCOCC1)C(=O)N[C@@H](Cc1ccccc1)C(=O)N[C@@H](CC(C)C)C(=O)[C@@]1(C)CO1 [carfilzomib]
[6]
  degradation of UbnGST-Wbp2 by 26S proteasome (SDS-PAGE): blocked

## CN1C(=O)[C@]2(Cc3cn([C@]45C[C@@]67SS[C@@](CO)(C(=O)N6[C@H]4Nc4ccccc45)N(C)C7=O)c4ccccc34)SS[C@@]1(CO)C(=O)N2C [chetomin]
IκB
  effect on degradation of IκB induced by TNF-α: strongly stabilized IκB

## CN1C(=O)[C@]23CC4=CC=C[C@H](O)[C@H]4N2C(=O)[C@@]1(CO)SS3 [gliotoxin]
[7]
  accumulation of poly-ubiquitinated species: led to the accumulation of ubiquitinated species
Cul1 in HCT116 cells
  accumulation of Nedd8-conjugated Cul1: caused accumulation of Nedd8-conjugated Cul1
IκB
  effect on degradation of IκB induced by TNF-α: strongly stabilized IκB
HCT116 cells
  cell detachment: induce cell detachment
[8]
  inhibition of chymotrypsin-like activity of the proteasome: do not inhibit
